# Measured values as given in ChEMBL document CHEMBL1131791 (Bioorg Med Chem Lett, 1999).
# Legend:
# [1] = molecular target: D(3) dopamine receptor (Homo sapiens, UniProt P35462); assay: Ability to displace [3H]spiperone from the cloned human D3 dopamine receptor stably expressed in Chinese hamster ovary (CHO) cells was determined.; type: cell-based
# [2] = molecular target: D(1A) dopamine receptor (Bos taurus, UniProt Q95136); assay: Ability to displace D1 selective radioligand [3H]-SCH- 23390 in bovine striatal membrane preparations was determined; type: cell membranes, Striatum
# [3] = molecular target: T1, D(2) dopamine receptor (Homo sapiens, UniProt P14416); assay: Ability to displace [3H]spiperone from the cloned human Dopamine receptor D2S stably expressed in Chinese hamster ovary (CHO) cells was determined.; type: cell-based
# [4] = molecular target: T2, D(4) dopamine receptor (Homo sapiens, UniProt P21917); assay: Binding affinity of compound towards human cloned Dopamine receptor D4.4 expressed in CHO cells using [3H]spiperone as radioligand; type: cell-based
# T2 sequence (P21917 whole entry): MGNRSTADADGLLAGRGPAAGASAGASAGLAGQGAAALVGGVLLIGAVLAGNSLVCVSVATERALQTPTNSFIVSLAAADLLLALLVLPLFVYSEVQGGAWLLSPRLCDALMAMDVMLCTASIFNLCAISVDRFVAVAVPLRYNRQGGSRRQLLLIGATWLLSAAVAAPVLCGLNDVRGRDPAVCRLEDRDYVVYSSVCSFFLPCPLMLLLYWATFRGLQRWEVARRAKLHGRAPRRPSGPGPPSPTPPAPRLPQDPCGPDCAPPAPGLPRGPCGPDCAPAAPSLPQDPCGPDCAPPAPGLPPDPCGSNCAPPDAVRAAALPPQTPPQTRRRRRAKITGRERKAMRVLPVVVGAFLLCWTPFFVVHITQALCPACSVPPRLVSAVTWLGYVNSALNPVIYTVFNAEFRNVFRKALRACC
# [5] = molecular target: T1, D(2) dopamine receptor; assay: Ability to displace [3H]spiperone from the cloned human Dopamine receptor D2L stably expressed in Chinese hamster ovary (CHO) cells was determined.; type: cell-based
# Chain of D(3) dopamine receptor (P35462 whole entry): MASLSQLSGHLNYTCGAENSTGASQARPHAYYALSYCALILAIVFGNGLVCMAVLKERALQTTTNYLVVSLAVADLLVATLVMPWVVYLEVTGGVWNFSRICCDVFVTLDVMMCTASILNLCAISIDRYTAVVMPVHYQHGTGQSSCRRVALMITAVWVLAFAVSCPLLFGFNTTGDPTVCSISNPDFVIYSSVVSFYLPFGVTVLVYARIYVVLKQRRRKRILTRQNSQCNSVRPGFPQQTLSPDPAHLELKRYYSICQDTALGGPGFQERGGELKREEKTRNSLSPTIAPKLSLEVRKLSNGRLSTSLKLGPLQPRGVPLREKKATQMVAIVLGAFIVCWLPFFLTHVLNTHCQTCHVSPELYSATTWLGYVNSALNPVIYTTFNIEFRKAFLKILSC
# Chain of D(1A) dopamine receptor (Q95136 whole entry): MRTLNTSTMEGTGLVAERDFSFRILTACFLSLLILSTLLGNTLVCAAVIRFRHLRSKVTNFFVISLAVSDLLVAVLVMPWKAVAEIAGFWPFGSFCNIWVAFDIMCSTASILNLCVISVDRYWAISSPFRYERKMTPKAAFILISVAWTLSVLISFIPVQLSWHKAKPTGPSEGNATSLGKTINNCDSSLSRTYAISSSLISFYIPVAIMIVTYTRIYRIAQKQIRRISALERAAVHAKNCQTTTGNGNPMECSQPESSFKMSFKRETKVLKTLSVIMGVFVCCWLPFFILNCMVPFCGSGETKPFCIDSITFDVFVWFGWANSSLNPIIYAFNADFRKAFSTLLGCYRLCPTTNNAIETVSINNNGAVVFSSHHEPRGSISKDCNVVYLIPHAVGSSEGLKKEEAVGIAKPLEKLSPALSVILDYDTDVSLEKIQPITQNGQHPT
# T1 sequence (P14416 whole entry): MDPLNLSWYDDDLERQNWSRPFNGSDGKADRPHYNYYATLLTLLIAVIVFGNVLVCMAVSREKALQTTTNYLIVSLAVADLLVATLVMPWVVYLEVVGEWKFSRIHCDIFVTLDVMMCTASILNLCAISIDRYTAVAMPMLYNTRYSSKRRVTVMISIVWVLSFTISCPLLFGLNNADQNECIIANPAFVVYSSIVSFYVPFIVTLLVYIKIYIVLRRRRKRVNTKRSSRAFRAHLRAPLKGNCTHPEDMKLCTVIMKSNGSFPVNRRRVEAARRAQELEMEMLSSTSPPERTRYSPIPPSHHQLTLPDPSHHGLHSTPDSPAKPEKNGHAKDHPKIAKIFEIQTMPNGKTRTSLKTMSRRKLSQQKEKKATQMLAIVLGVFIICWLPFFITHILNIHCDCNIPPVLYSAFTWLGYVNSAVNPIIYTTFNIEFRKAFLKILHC
Compound,Ki [1],Ki [2],Ki [3],Ki [4],Ki [5]
N#CC(C#N)=Cc1ccc(CN2CCN(c3ccc(Cl)cc3)CC2)[nH]1,31 µM,39.5 µM,59 µM,0.011 µM,48.5 µM
N#CC(C#N)=Cc1[nH]ccc1CN1CCN(c2ccc(Cl)cc2)CC1,7.6 µM,13.5 µM,15 µM,0.125 µM,8.95 µM
N#CC(C#N)=Cc1cc(CN2CCN(c3ccc(Cl)cc3)CC2)c[nH]1,6.95 µM,5.3 µM,10.3 µM,0.0057 µM,7.35 µM
N#CC(C#N)=Cc1[nH]ccc1CN1CCN(c2ccccc2)CC1,6.95 µM,22 µM,12.8 µM,0.16 µM,4 µM
N#CC(C#N)=Cc1ccc(CN2CCN(c3ccccc3)CC2)[nH]1,5.25 µM,58 µM,> 100 µM,0.0093 µM,> 100 µM
N#CC(C#N)=Cc1cc(CN2CCN(c3ccccc3)CC2)c[nH]1,2.35 µM,7.2 µM,0.975 µM,0.0039 µM,1.85 µM
